Source: PubChem BioAssay (NCI)
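1) Cells in 96-well plates. 2) Compound, 48 h, 5 concentrations. 3) Linear interpolation between surrounding doses. 4) Unreached endpoint = highest concentration. Definition used: TGI = concentration required for complete inhibition of growth.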

Key:
Experiment in all cases: NCI anticancer screen, dose series, 48 h
UACC-62 melanoma = test system: UACC-62 melanoma
RXF 393 renal = test system: RXF 393 renal
LOX IMVI melanoma = test system: LOX IMVI melanoma
SF-539 CNS = test system: SF-539 CNS
M14 melanoma = test system: M14 melanoma
SN12C renal = test system: SN12C renal
RPMI-8226 leukemia = test system: RPMI-8226 leukemia
786-0 renal = test system: 786-0 renal
EKVX NSCLC = test system: EKVX NSCLC
HCT-15 colon = test system: HCT-15 colon
HS 578T breast = test system: HS 578T breast
MOLT-4 leukemia = test system: MOLT-4 leukemia
CCRF-CEM leukemia = test system: CCRF-CEM leukemia
KM12 colon = test system: KM12 colon
SK-MEL-28 melanoma = test system: SK-MEL-28 melanoma
DU-145 prostate = test system: DU-145 prostate
MCF7 breast = test system: MCF7 breast
K-562 leukemia = test system: K-562 leukemia
OVCAR-5 ovarian = test system: OVCAR-5 ovarian
IGROV1 ovarian = test system: IGROV1 ovarian
HOP-92 NSCLC = test system: HOP-92 NSCLC
NCI-H460 lung = test system: NCI-H460 lung
T-47D breast = test system: T-47D breast
SNB-19 CNS = test system: SNB-19 CNS
SK-MEL-2 melanoma = test system: SK-MEL-2 melanoma
SF-295 CNS = test system: SF-295 CNS
MDA-MB-231 breast = test system: MDA-MB-231 breast
SF-268 CNS = test system: SF-268 CNS
BT-549 breast = test system: BT-549 breast
OVCAR-3 ovarian = test system: OVCAR-3 ovarian
PC-3 prostate = test system: PC-3 prostate
SK-MEL-5 melanoma = test system: SK-MEL-5 melanoma
HOP-62 NSCLC = test system: HOP-62 NSCLC
TK-10 renal = test system: TK-10 renal
SK-OV-3 ovarian = test system: SK-OV-3 ovarian
UO-31 renal = test system: UO-31 renal
SR leukemia = test system: SR leukemia
A549 NSCLC = test system: A549 NSCLC
ACHN renal = test system: ACHN renal
SNB-75 CNS = test system: SNB-75 CNS
U251 CNS = test system: U251 CNS
HT29 colon = test system: HT29 colon
MALME-3M melanoma = test system: MALME-3M melanoma
HCC-2998 colon = test system: HCC-2998 colon
HL-60(TB) leukemia = test system: HL-60(TB) leukemia
HCT-116 colon = test system: HCT-116 colon
OVCAR-8 ovarian = test system: OVCAR-8 ovarian
MDA-MB-435 = test system: MDA-MB-435
UACC-257 melanoma = test system: UACC-257 melanoma
NCI-H23 lung = test system: NCI-H23 lung
NCI-H226 lung = test system: NCI-H226 lung
MDA-N = test system: MDA-N
A498 renal = test system: A498 renal
CAKI-1 renal = test system: CAKI-1 renal
SW-620 colon = test system: SW-620 colon
OVCAR-4 ovarian = test system: OVCAR-4 ovarian
NCI/ADR-RES ovarian = test system: NCI/ADR-RES ovarian
COLO 205 colon = test system: COLO 205 colon

CC(=O)C(=[N+]=[N-])C(=O)OCCOC(=O)C(=[N+]=[N-])C(C)=O
TGI (UACC-62 melanoma): > 1 µM
TGI (RXF 393 renal): > 1 µM
TGI (LOX IMVI melanoma): > 1 µM
TGI (SF-539 CNS): > 1 µM
TGI (M14 melanoma): > 1 µM
TGI (SN12C renal): > 1 µM
TGI (RPMI-8226 leukemia): > 1 µM
TGI (786-0 renal): > 1 µM
TGI (EKVX NSCLC): > 1 µM
TGI (HCT-15 colon): > 1 µM
TGI (HS 578T breast): > 1 µM
TGI (MOLT-4 leukemia): > 1 µM
TGI (CCRF-CEM leukemia): > 1 µM
TGI (KM12 colon): > 1 µM
TGI (SK-MEL-28 melanoma): > 1 µM
TGI (DU-145 prostate): > 1 µM
TGI (MCF7 breast): > 1 µM
TGI (K-562 leukemia): > 1 µM
TGI (OVCAR-5 ovarian): > 1 µM
TGI (IGROV1 ovarian): > 1 µM
TGI (HOP-92 NSCLC): > 1 µM
TGI (NCI-H460 lung): > 1 µM
TGI (T-47D breast): > 1 µM
TGI (SNB-19 CNS): > 1 µM
TGI (SK-MEL-2 melanoma): > 1 µM
TGI (SF-295 CNS): > 1 µM
TGI (MDA-MB-231 breast): > 1 µM
TGI (SF-268 CNS): > 1 µM
TGI (BT-549 breast): > 1 µM
TGI (OVCAR-3 ovarian): > 1 µM
TGI (PC-3 prostate): > 1 µM
TGI (SK-MEL-5 melanoma): > 1 µM
TGI (HOP-62 NSCLC): > 1 µM
TGI (TK-10 renal): > 1 µM
TGI (SK-OV-3 ovarian): > 1 µM
TGI (UO-31 renal): > 1 µM
TGI (SR leukemia): > 1 µM
TGI (A549 NSCLC): > 1 µM
TGI (ACHN renal): > 1 µM
TGI (SNB-75 CNS): > 1 µM
TGI (U251 CNS): > 1 µM
TGI (HT29 colon): > 1 µM
TGI (MALME-3M melanoma): > 1 µM
TGI (HCC-2998 colon): > 1 µM
TGI (HL-60(TB) leukemia): > 1 µM
TGI (HCT-116 colon): > 1 µM
TGI (OVCAR-8 ovarian): > 1 µM
TGI (MDA-MB-435): > 1 µM
TGI (UACC-257 melanoma): > 1 µM
TGI (NCI-H23 lung): > 1 µM
TGI (NCI-H226 lung): > 1 µM
TGI (MDA-N): > 1 µM
TGI (A498 renal): > 1 µM

Cn1c(=O)cc(NCCc2ccccc2)[nH]c1=O
TGI (UACC-62 melanoma): > 100 µM
TGI (RXF 393 renal): > 100 µM
TGI (LOX IMVI melanoma): > 100 µM
TGI (SF-539 CNS): > 100 µM
TGI (M14 melanoma): > 100 µM
TGI (SN12C renal): > 100 µM
TGI (RPMI-8226 leukemia): > 100 µM
TGI (786-0 renal): > 100 µM
TGI (EKVX NSCLC): > 100 µM
TGI (CAKI-1 renal): > 100 µM
TGI (HCT-15 colon): > 100 µM
TGI (HS 578T breast): 50.7 µM
TGI (MOLT-4 leukemia): > 100 µM
TGI (SW-620 colon): > 100 µM
TGI (CCRF-CEM leukemia): > 100 µM
TGI (KM12 colon): > 100 µM
TGI (SK-MEL-28 melanoma): > 100 µM
TGI (DU-145 prostate): > 100 µM
TGI (MCF7 breast): > 100 µM
TGI (OVCAR-4 ovarian): > 100 µM
TGI (K-562 leukemia): > 100 µM
TGI (OVCAR-5 ovarian): > 100 µM
TGI (IGROV1 ovarian): > 100 µM
TGI (HOP-92 NSCLC): > 100 µM
TGI (NCI/ADR-RES ovarian): 98 µM
TGI (NCI-H460 lung): > 100 µM
TGI (T-47D breast): > 100 µM
TGI (SNB-19 CNS): > 100 µM
TGI (SK-MEL-2 melanoma): > 100 µM
TGI (SF-295 CNS): 97.6 µM
TGI (MDA-MB-231 breast): 50 µM
TGI (SF-268 CNS): > 100 µM
TGI (BT-549 breast): > 100 µM
TGI (OVCAR-3 ovarian): 36.6 µM
TGI (PC-3 prostate): > 100 µM
TGI (SK-MEL-5 melanoma): > 100 µM
TGI (HOP-62 NSCLC): > 100 µM
TGI (TK-10 renal): > 100 µM
TGI (SK-OV-3 ovarian): > 100 µM
TGI (UO-31 renal): > 100 µM
TGI (A549 NSCLC): > 100 µM
TGI (ACHN renal): > 100 µM
TGI (SNB-75 CNS): > 100 µM
TGI (U251 CNS): > 100 µM
TGI (HT29 colon): 78.1 µM
TGI (MALME-3M melanoma): > 100 µM
TGI (HCC-2998 colon): > 100 µM
TGI (COLO 205 colon): > 100 µM
TGI (HCT-116 colon): > 100 µM
TGI (OVCAR-8 ovarian): > 100 µM
TGI (UACC-257 melanoma): > 100 µM
TGI (NCI-H23 lung): > 100 µM
TGI (NCI-H226 lung): > 100 µM
TGI (MDA-N): 20.5 µM
TGI (A498 renal): > 100 µM
